target: human PRMT5/MEP50 (Homo sapiens (Human), UniProt O14744); assay: PRMT5 chemiluminescent assay; type: biochemical; details: human PRMT5/MEP50 expressed in HEK293 cells; biotinylated histone peptide substrate; 60 min reaction; chemiluminescent readout
Description: A PRMT5 chemiluminescent assay was used to measure the […] activity of PRMT5. Biotinylated histone peptides were synthesized and attached to 384-well plates. Compound serial dilutions were performed and added to the assay plate. Histone H4 monomethyl R^3 antibody was obtained from Abcam. A master mix for each well was prepared and human PRMT5/MEP50 (expressed in HEK293 cells) diluted in assay buffer to a concentration of 5 ng/μL. The reaction was incubated and slowly rotated for 60 minutes at the point of PRMT5/MEP50 addition. The supernatant from the wells was removed and blocking buffer was added to each well and rotated for 10 minutes. The primary antibody was diluted and added to every well for 60 minutes, before it was removed and the wells washed. The horse radish peroxidase (HRP)-coupled secondary antibody was diluted and added to each well with an incubation time of 30 minutes. The HRP chemiluminescent substrate was added to every well. The plate was read on a Flourstar Omega BMG Labtech instrument (Ortenberg, Germany) and the analysis of IC50 was performed using the Flourstar Omega BMG Labtech software.

Sequence of human PRMT5/MEP50 (O14744 whole entry): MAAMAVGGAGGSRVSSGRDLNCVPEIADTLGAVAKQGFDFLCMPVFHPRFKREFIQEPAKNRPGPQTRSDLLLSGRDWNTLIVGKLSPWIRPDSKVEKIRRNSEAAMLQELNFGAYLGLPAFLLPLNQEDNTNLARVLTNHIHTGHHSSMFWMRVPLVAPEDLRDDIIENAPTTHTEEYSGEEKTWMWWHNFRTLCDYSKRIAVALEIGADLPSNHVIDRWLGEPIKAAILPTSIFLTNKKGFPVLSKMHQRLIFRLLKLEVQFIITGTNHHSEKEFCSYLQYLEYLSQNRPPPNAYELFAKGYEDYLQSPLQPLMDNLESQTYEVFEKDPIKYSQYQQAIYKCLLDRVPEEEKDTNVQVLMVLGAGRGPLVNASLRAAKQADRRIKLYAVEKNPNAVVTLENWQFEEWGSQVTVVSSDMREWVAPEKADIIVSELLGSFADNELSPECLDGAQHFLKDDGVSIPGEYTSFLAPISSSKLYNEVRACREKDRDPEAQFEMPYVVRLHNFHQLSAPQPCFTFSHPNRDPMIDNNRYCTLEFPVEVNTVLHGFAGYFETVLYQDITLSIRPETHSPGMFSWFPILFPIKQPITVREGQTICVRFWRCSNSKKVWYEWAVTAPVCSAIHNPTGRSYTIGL
Sequence of human PRMT5/MEP50 (Q9BQA1 whole entry partner): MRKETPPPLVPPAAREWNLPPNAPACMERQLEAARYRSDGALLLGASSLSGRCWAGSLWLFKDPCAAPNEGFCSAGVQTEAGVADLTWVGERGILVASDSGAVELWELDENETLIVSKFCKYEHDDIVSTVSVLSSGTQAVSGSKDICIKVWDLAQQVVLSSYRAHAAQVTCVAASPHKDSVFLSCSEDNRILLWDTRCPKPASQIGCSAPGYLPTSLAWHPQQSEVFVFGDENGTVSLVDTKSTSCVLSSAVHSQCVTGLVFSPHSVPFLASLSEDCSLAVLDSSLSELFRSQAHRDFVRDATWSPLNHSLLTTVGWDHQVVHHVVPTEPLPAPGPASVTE

Row | Structure (SMILES) | IC50
1 | O=C(NCC(O)CN1CCc2c([nH]c3ccccc23)C1)c1ccc(C(=O)N2CCOCC2)cc1 (stereo not drawn) [Example 13, N-(2-hydroxy-3-{1H,2H,3H,4H,9H-pyrido[3,4-b]indol-2-yl}propyl)-4-[(morpholin-4-yl)carbonyl]benzamide] | 2040 nM
2 | CN1CCN(c2cc(C(=O)NCC(O)CN3CCc4[nH]c5ccccc5c4C3)cc(NC3CCC3)n2)CC1 (stereo not drawn) [Example 2, 2-(cyclobutylamino)-N-(2-hydroxy-3-{1H,2H,3H,4H,5H-pyrido[4,3-b]indol-2-yl}propyl)-6-(4-methylpiperazin-1-yl)pyridine-4-carboxamide] | 771 nM
3 | Cn1c2c(c3ccccc31)CCN(CC(O)CNC(=O)c1cc(NC3CCC3)ncn1)C2 (stereo not drawn) [Example 17, 6-(cyclobutylamino)-N-(2-hydroxy-3-{9-methyl-1H,2H,3H,4H,9H-pyrido[3,4-b]indol-2-yl}propyl)pyrimidine-4-carboxamide] | 8040 nM
4 | CN1CCN(c2cc(C(=O)NCC(O)CN3CCc4c([nH]c5ccccc45)C3)cc(NC3CCC3)n2)CC1 (stereo not drawn) [Example 10, 2-(cyclobutylamino)-N-(2-hydroxy-3-{1H,2H,3H,4H,9H-pyrido[3,4-b]indol-2-yl}propyl)-6-(4-methylpiperazin-1-yl)pyridine-4-carboxamide] | 67 nM
5 | O=C(NCC(O)CN1CCc2c([nH]c3ccccc23)C1)c1ccc(C(=O)N2C3CCC2COC3)cc1 (stereo not drawn) [Example 14, N-(2-hydroxy-3-{1H,2H,3H,4H,9H-pyrido[3,4-b]indol-2-yl}propyl)-4-({3-oxa-8-azabicyclo[3.2.1]octan-8-yl}carbonyl)benzamide] | 1630 nM
6 | CN1CCN(c2cc(C(=O)NCC(O)CN3CCc4c(n(C)c5ccccc45)C3)cc(NC3CCC3)n2)CC1 (stereo not drawn) [Example 16, 2-(cyclobutylamino)-N-(2-hydroxy-3-{9-methyl-1H,2H,3H,4H,9H-pyrido[3,4-b]indol-2-yl}propyl)-6-(4-methylpiperazin-1-yl)pyridine-4-carboxamide] | 286 nM
7 | O=C(OCC(O)CN1CCc2c([nH]c3ccccc23)C1)N1CCc2ccccc2C1 (stereo not drawn) [Example 21, 2-Hydroxy-3-(1,3,4,9-tetrahydro-2H-pyrido[3,4-b]indol-2-yl)propyl 3,4-dihydroisoquinoline-2(1H)-carboxylate] | 6190 nM
8 | CN1CCN(c2nc(NC3CCC3)cc(C(=O)NCC(O)CN3CCc4c(c5ccccc5n4C)C3)n2)CC1 (stereo not drawn) [Example 6, 6-(cyclobutylamino)-N-(2-hydroxy-3-{5-methyl-1H,2H,3H,4H,5H-pyrido[4,3-b]indol-2-yl}propyl)-2-(4-methylpiperazin-1-yl)pyrimidine-4-carboxamide] | 108 nM
9 | Cn1c2c(c3ccccc31)CCN(CC(O)CNC(=O)c1ccc(C(=O)N3C4CCC3COC4)cc1)C2 (stereo not drawn) [Example 19, N-(2-hydroxy-3-{9-methyl-1H,2H,3H,4H,9H-pyrido[3,4-b]indol-2-yl}propyl)-4-({3-oxa-8-azabicyclo[3.2.1]octan-8-yl}carbonyl)benzamide] | 26900 nM
10 | CC(=O)N1CCC(Nc2cc(C(=O)NCCCN3CCc4c([nH]c5ccccc45)C3)ncn2)CC1 [Example 25, 6-((1-acetylpiperidin-4-yl)amino)-N-(3-(1,3,4,9-tetrahydro-2H-pyrido[3,4-b]indol-2-yl)propyl)pyrimidine-4-carboxamide] | 99 nM
11 | O=C(NCC(O)CN1CCc2c([nH]c3ccccc23)C1)N1CCCC(c2ccccc2)C1 (stereo not drawn) [Example 24, N-(2-hydroxy-3-(1,3,4,9-tetrahydro-2H-pyrido[3,4-b]indol-2-yl)propyl)-3-phenylpiperidine-1-carboxamide] | 53700 nM
12 | O=C(NCC(O)CN1CCc2c([nH]c3ccccc23)C1)N1CCc2ccccc2C1 (stereo not drawn) [Example 22, N-(2-hydroxy-3-(1,3,4,9-tetrahydro-2H-pyrido[3,4-b]indol-2-yl)propyl)-3,4-dihydroisoquinoline-2(1H)-carboxamide] | 21000 nM
13 | CC(=O)N1CCC(Nc2cc(C(=O)NC[C@@H](O)CN3CCc4c([nH]c5ccccc45)C3)ncn2)CC1 [Example 27, (R)-6-((1-acetylpiperidin-4-yl)amino)-N-(2-hydroxy-3-(1,3,4,9-tetrahydro-2H-pyrido [3,4-b]indol-2-yl)propyl)pyrimidine-4-carboxamide] | 158 nM
14 | CC(=O)N1CCC(Nc2cc(C(=O)NCC(O)CN3CCc4[nH]c5ccccc5c4C3)ncn2)CC1 (stereo not drawn) [Example 4, 6-[(1-acetylpiperidin-4-yl)amino]-N-(2-hydroxy-3-{1H,2H,3H,4H,5H-pyrido[4,3-b]indol-2-yl}propyl)pyrimidine-4-carboxamide] | 542 nM
15 | O=C(NCC(O)CN1CCc2c([nH]c3ccccc23)C1)c1cc(NC2CCC2)ncn1 (stereo not drawn) [Example 11, 6-(Cyclobutylamino)-N-(2-hydroxy-3-{1H,2H,3H,4H,9H-pyrido[3,4-b]indol-2-yl}propyl)pyrimidine-4-carboxamide] | 459 nM
16 | CN1CCN(c2nc(NC3CCC3)cc(C(=O)NCC(O)CN3CCc4c(n(C)c5ccccc45)C3)n2)CC1 (stereo not drawn) [Example 15, 6-(cyclobutylamino)-N-(2-hydroxy-3-{9-methyl-1H,2H,3H,4H,9H-pyrido[3,4-b]indol-2-yl}propyl)-2-(4-methylpiperazin-1-yl)pyrimidine-4-carboxamide] | 477 nM
17 | CC(=O)N1CCC(Nc2cc(C(=O)NCC(O)CN3CCc4c(n(C)c5ccccc45)C3)ncn2)CC1 (stereo not drawn) [Example 18, 6-[(1-acetylpiperidin-4-yl)amino]-N-(2-hydroxy-3-{9-methyl-1H,2H,3H,4H,9H-pyrido[3,4-b]indol-2-yl}propyl)pyrimidine-4-carboxamide] | 2050 nM
18 | CN1CCN(c2nc(NC3CCC3)cc(C(=O)NCC(O)CN3CCc4c([nH]c5ccccc45)C3)n2)CC1 (stereo not drawn) [Example 9, 6-(cyclobutylamino)-N-(2-hydroxy-3-{1H,2H,3H,4H,9H-pyrido[3,4-b]indol-2-yl}propyl)-2-(4-methylpiperazin-1-yl)pyrimidine-4-carboxamide] | 148 nM
19 | CC(=O)N1CCC(Nc2cc(C(=O)NCC(O)CN3CCn4c(cc5ccccc54)C3)ncn2)CC1 (stereo not drawn) [Example 28, 6-((1-acetylpiperidin-4-yl)amino)-N-(3-(3,4-dihydropyrazino[1,2-a]indol-2(1H)-yl)-2-hydroxypropyl)pyrimidine-4-carboxamide] | 45 nM
20 | CC(=O)N1CCC(Nc2cc(C(=O)NC[C@H](O)CN3CCc4c([nH]c5ccccc45)C3)ncn2)CC1 [Example 26, (S)-6-((1-acetylpiperidin-4-yl)amino)-N-(2-hydroxy-3-(1,3,4,9-tetrahydro-2H-pyrido [3,4-b]indol-2-yl)propyl)pyrimidine-4-carboxamide] | 10 nM
21 | CN1CCN(c2cc(C(=O)NCC(O)CN3CCc4c(c5ccccc5n4C)C3)cc(NC3CCC3)n2)CC1 (stereo not drawn) [Example 7, 2-(cyclobutylamino)-N-(2-hydroxy-3-{5-methyl-1H,2H,3H,4H,5H-pyrido[4,3-b]indol-2-yl}propyl)-6-(4-methylpiperazin-1-yl)pyridine-4-carboxamide] | 322 nM
22 | O=C(OCC(O)CN1CCc2c([nH]c3ccccc23)C1)N1CCC(c2ccccc2)C1 (stereo not drawn) [Example 20, 2-hydroxy-3-(1,3,4,9-tetrahydro-2H-pyrido[3,4-b]indol-2-yl)propyl 3-phenylpyrrolidine-1-carboxylate] | 10500 nM
23 | CC(=O)N1CCC(Nc2cc(C(=O)NCC(O)CN3CCc4c([nH]c5ccccc45)C3)ncn2)CC1 (stereo not drawn) [Example 12, 6-[(1-acetylpiperidin-4-yl)amino]-N-(2-hydroxy-3-{1H,2H,3H,4H,9H-pyrido[3,4-b]indol-2-yl}propyl)pyrimidine-4-carboxamide] | 86 nM
24 | O=C(NCC(O)CN1CCc2c([nH]c3ccccc23)C1)N1CCC(c2ccccc2)C1 (stereo not drawn) [Example 23, N-(2-hydroxy-3-(1,3,4,9-tetrahydro-2H-pyrido[3,4-b]indol-2-yl)propyl)-3-phenyl pyrrolidine-1-carboxamide] | 75700 nM

— patent publication US11274098B2, “Tricyclic compounds for use in treatment of proliferative disorders” (ARGONAUT THERAPEUTICS LIMITED, priority 2017, dated 2022)
